According to patent publication US20100280231A1, “WHITENING AGENT COMPRISING EQUOL OR ITS SACCHARIDE DERIVATIVE AS AN EFFECTIVE INGREDIENT” (priority 2007, published 2010):
Read-outs that look alike come from different tables or passages of the source.

Tests used:
[1] = tested on: skin of the upper arm of volunteers; test: Safety test, application on the upper arm of volunteers; details: 3 parts by weight (equol equivalent) in ethanol/glycerol/water base, 1-cm square, three times a day for three days, five volunteers each, observed for the next week
[2] = tested on: skin of the upper arm of volunteers; details: human, in vivo
Mouse B16 melanoma cells = test: Test of whitening effect in vitro (melanin production); type: cell-based; set-up: key to Determination of whitening effect: −: Not changed; ±: Slightly whitened; +: A little whitened; ++: Significantly whitened; +++: Completely whitened; details: for Determination of whitening effect: B16 melanoma cells, 4 days; for EC50: Mus musculus, B16, concentration giving half of the melanin production of the negative control, read-out: ED50 (the source's name); for Melanin Production: negative control 73.9
Experimental: Three equol glycoside preparation prepared in Experiment 1, i.e. the solution containing reaction products (a solution containing 4′-O-α-D-glucopyranosyl-S-equol and 7-O-α-D-glucopyranosyl-S-equol, hereinafter, described as “equol glycoside containing solution”), 4′-O-α-D-glucopyranosyl-S-equol and 7-O-α-D-glucopyranosyl-S-equol, and the equol used in Experiment 1 were used as test samples, and the following experiment was carried out to determine their whitening effect. Mouse B16 melanoma cells suspended in RPMI-1640 medium containing 10 v/v % fetal calf serum (hereinafter, abbreviated as “FCS”) were inoculated into “6-MULTIWELL MICROPLATE” (6-well microplate commercialized by Becton, Dickinson and Company) to give a cell concentration of 4×10^4 cells/well. After the cells were adhered to the bottom of well, the culture supernatant was removed. The cells were admixed with equol or any one of the three equol glycoside samples, diluted with the same medium to give the concentration described in Table 2, and then cultured at 37° C. in an atmosphere of 5 v/v % CO2 for four days. The cells were collected after admixed with trypsin-EDTA, washed once with Dulbecco's PBS (−) (hereinafter, abbreviated as “D-PBS”), and then dissolved in 1N-sodium hydroxide. A part of the solution was used to determine the amount of protein. The above alkaline solution was boiled for 30 minutes and the amount of melanin was measured. […] Also ED50 (the concentration of the test sample giving half of the melanin production in the cell cultured with negative control) is shown in Table 2. The medium alone was used as negative control, and koji acid, which has been used as a whitening substance for external dermatological composition, was used as positive control at the concentration described in Table 2 (0.5 to 2 mM), to evaluate the whitening effect. The evaluation of whitening effect and measurement of melanin, protein and equol glycosides were carried out as follows.
The melanin production was determined by comparing the absorbance at 450 nm (reference 650 nm) of each alkaline solution to that of melanin standard (Sigma Corporation), measured with “MICROPLATE READER M-Vmax” (commercialized by Wako Pure Chemical Industries Co., Ltd.).
The amount of protein was determined by Bradford method using human serum album bumin as standard.
The concentration of equol glycoside in the powdery product used in the following experiments were determined by the same method as used in Experiment 1, based on the molar absorption coefficient of equol measured at UV 280 nm.

[3] = tested on: mouse 3T3-L1 cell line (precursor lipocyte); test: Effect on differentiation of precursor lipocyte into lipocyte (oil red O staining); type: cell-based; details: for Concentration enhancing differentiation of precursor lipocyte into mature lipocyte: Table 3, compared to control; for Enhancing effect on differentiation into lipocyte: with 10 μg/ml insulin, 12 days, relative absorbance, control = 100%, * p < 0.05 vs control
Experimental: It is known that mouse 3T3-L1 cell line (precursor lipocyte) differentiates into mature lipocyte when cultured in the presence of a differentiation inducer, and accumulates oil droplet in the cell according to the progress of differentiation. The mouse 3T3-Li cells were suspended in a medium, which is Dulbecco's MEM medium (hereinafter, abbreviated as “D-MEM”) supplemented with FCS (final concentration of 10 v/v %) and glucose (final concentration of 3 mg/ml), (hereinafter, described as “regular medium”) to give a cell concentration of 2.5×10^4 cells/well, and inoculated to “CELL CULTURE 24-MULTIWELL MICROPLATE” (24-well microplate coated with collagen type 1, commercialized by Becton, Dickinson and Company) by 1 ml/well. After the cells were cultured at 37° C. in an atmosphere of 5 v/v % CO2 for two days, the supernatant was removed and the remaining cells were admixed with a medium containing 10 μg/ml insulin and equol or equol glycosides dissolved in 50% ethanol, to give a concentration in Table 3, by 1 ml/well and then cultured for 12 days while replacing the medium every two or three days. After each well of the plate was washed with “D-PBS” three times, D-PBS containing 10% formalin was added by 0.2 ml/well, and then the cell was placed at 4° C. for one hour for fixation. After the fixing fluid was removed, a staining fluid of oilred O was added by 0.15 ml/well, and allowed to react at ambient temperature for 15 minutes to stain the lipid droplet in 3T3-L1 cell. After the staining fluid was removed, each well was washed with distilled water three times, and then the plate was dried. After the pigment in each well was dissolved in 0.4 ml of isopropanol, the absorbance of the resulting solution was measured at 490. The progress of the cell differentiation was expressed with relative absorbance to the absrobance of the cell cultured with control regarded as 100%.

[4] = tested on: mouse 3T3-L1 cells differentiated into mature cells; test: Test for lipid hydrolysis (glycerol release from mature lipocytes); type: cell-based; details: for Enhancing effect on lipid hydrolysis: glycerol per cell protein, 6 hours, control 274, * p < 0.05 vs control
Experimental: After the culture supernatant of mouse 3T3-L1 cells cultured under the same condition described above was removed, a regular medium containing 5 μg/ml insulin, 0.25 μM dexamethasone and 0.5 mM 3-isobutyl-1-methylxanthin was added by 1 ml/well, and then the cells were cultured for two days to differentiate into mature cells. After the supernatant was removed, the cells were washed with D-PBS three times and cultured with regular medium for 12 days while replacing the medium every two or three days by 1 ml/well. After the supernatant was removed and the cells were washed with D-PBS two times, a solution containing equol or equol glycosides diluted with D-MEM containing 1% bovine serum albumin to give the concentration described in Table 4 was added by 0.25 ml/well, and then the cell was cultured for 6 hours. After the supernatant was collected, the amount of glycerol was measured to determine the amount of the degraded lipid. After the supernatant was removed and the cells were washed with D-PBS three times, D-PBS containing 0.25% Triton X-100 was added to collect the cells, and then the cells were sonicated to give a cell-dissolving solution. The amount of protein of the sonicated cells was measured by Bradford method as in Experiment 3, and the amount of glycerol per cell protein representing degree of lipid degradation was shown in Table 3. The amount of glycerol was measured with “GLYCEROL REGENT A” (glycerol measurement kit commercialized by Zen-Bio, Inc.).

estrogen-receptor = details: Kenneth D. R. et al., Am. J. Clin. Nutr. 81, 1072-1079 (2005); cited from earlier work

Compound | Determination of whitening effect (Mouse B16 melanoma cells; sample concentration 5 μM) | Determination of whitening effect (Mouse B16 melanoma cells; sample concentration 10 μM) | Determination of whitening effect (Mouse B16 melanoma cells; sample concentration 20 μM) | Melanin Production (Mouse B16 melanoma cells; sample concentration 5 μM) | Melanin Production (Mouse B16 melanoma cells; sample concentration 10 μM) | Melanin Production (Mouse B16 melanoma cells; sample concentration 20 μM) | Concentration enhancing differentiation of precursor lipocyte into mature lipocyte [3] | Enhancing effect on differentiation into lipocyte ([3]; sample 5 μM) | Enhancing effect on differentiation into lipocyte ([3]; sample 20 μM) | Enhancing effect on lipid hydrolysis ([4]; sample 5 μM) | Enhancing effect on lipid hydrolysis ([4]; sample 20 μM) | Enhancing effect on lipid hydrolysis ([4]; sample 80 μM) | further results
OC[C@H]1O[C@H](Oc2ccc([C@@H]3COc4cc(O)ccc4C3)cc2)[C@H](O)[C@@H](O)[C@@H]1O [4′-O-α-D-glucopyranosyl-R-equol] | – | – | – | – | – | – | – | – | – | – | – | – | Condition of the skin after application [1]: no rough dry skin or rubor
OCC1O[C@H](Oc2ccc([C@H]3COc4cc(O)ccc4C3)cc2)[C@@H](O)C(O)[C@@H]1O (stereo partly drawn) [4′-O-α-D-glucopyranosyl-S-equol] | + | + | ++ | 57.1 μg/mg-cell protein | 55.0 μg/mg-cell protein | 48.2 μg/mg-cell protein | 80 µM | 92% | 107% | 272 μg/mg-cell protein | 320* μg/mg-cell protein | 401* μg/mg-cell protein | Condition of the skin after application [2]: no rough dry skin or rubor; EC50 (Mouse B16 melanoma cells): 38.8 µM; Enhancing effect on differentiation into lipocyte ([3]; sample 80 μM): 217* %
OC[C@H]1O[C@H](Oc2ccc3c(c2)OC[C@@H](c2ccc(O)cc2)C3)[C@H](O)[C@@H](O)[C@@H]1O [7-O-α-D-glucopyranosyl-R-equol] | – | – | – | – | – | – | – | – | – | – | – | – | Condition of the skin after application [1]: no rough dry skin or rubor
OCC1O[C@H](Oc2ccc3c(c2)OC[C@H](c2ccc(O)cc2)C3)[C@@H](O)C(O)[C@@H]1O (stereo partly drawn) [7-O-α-D-glucopyranosyl-S-equol] | + | + | ++ | 54.8 μg/mg-cell protein | 48.4 μg/mg-cell protein | 43.0 μg/mg-cell protein | 80 µM | 96% | 101% | 265 μg/mg-cell protein | 312* μg/mg-cell protein | 374* μg/mg-cell protein | Condition of the skin after application [2]: no rough dry skin or rubor; EC50 (Mouse B16 melanoma cells): 27.3 µM; Enhancing effect on differentiation into lipocyte ([3]; sample 80 μM): 253* %
Oc1ccc(C2COc3cc(O)ccc3C2)cc1 (centres unmarked) [Equol, equol] | ++ | +++ | +++ | 36.8 μg/mg-cell protein | 30.7 μg/mg-cell protein | 29.8 μg/mg-cell protein | ≥ 5 µM | 194* % | 430* % | 392* μg/mg-cell protein | 679* μg/mg-cell protein | 1119* μg/mg-cell protein | Whitening efficiency compared to positive control (Mouse B16 melanoma cells; equol 5 μM to 20 μM, Table 2): approximately the same as that of 1 mM koji acid; Concentration enhancing degradation of triglyceride accumulated in lipocyte ([4]; Table 3, compared to control): ≥ 5 µM
O=c1cc(CO)occ1O [Koji cid, koji acid, reference compound] | – | – | – | – | – | – | – | – | – | – | – | – | Determination of whitening effect (Mouse B16 melanoma cells; sample concentration 1 mM): +; Determination of whitening effect (Mouse B16 melanoma cells; sample concentration 2 mM): ++; Determination of whitening effect (Mouse B16 melanoma cells; sample concentration 4 mM): +++; Melanin Production (Mouse B16 melanoma cells; sample concentration 1 mM): 57.1 μg/mg-cell protein; Melanin Production (Mouse B16 melanoma cells; sample concentration 2 mM): 47.5 μg/mg-cell protein; Melanin Production (Mouse B16 melanoma cells; sample concentration 4 mM): 37.7 μg/mg-cell protein
S-equol | – | – | – | – | – | – | – | – | – | – | – | – | Estrogenic activity according to the affinity to the receptor (estrogen-receptor): higher than that of R-equol
